Laboratory results taken from patent US4454291A, “N-(2-Substituted-1-oxoalkyl)-2,3-dihydro-1H-indole-2-carboxylic acid derivatives” (American Home Products Corporation, priority 1982, dated 1984).
Counter-ions that a name gives are not always drawn. Square brackets hold non-standard residues; d marks the D form. Ends that are not written are not given here. pGlu = O=C1CC[C@@H](C(=O)O)N1

What was measured:
hypertension [1] = settings: cited from earlier work
[2] = target: T1, angiotensin converting enzyme (Oryctolagus cuniculus, UniProt P12822); assay: In vitro assay for angiotensin converting enzyme inhibition utilizing rabbit lung extract (Cushman et al.), hippuryl-L-histidyl-L-leucine substrate; type: biochemical
T1 construct: utilizing the rabbit lung extract; from tissue; host or cells: rabbit lung extract
T1 sequence (P12822 34-1310): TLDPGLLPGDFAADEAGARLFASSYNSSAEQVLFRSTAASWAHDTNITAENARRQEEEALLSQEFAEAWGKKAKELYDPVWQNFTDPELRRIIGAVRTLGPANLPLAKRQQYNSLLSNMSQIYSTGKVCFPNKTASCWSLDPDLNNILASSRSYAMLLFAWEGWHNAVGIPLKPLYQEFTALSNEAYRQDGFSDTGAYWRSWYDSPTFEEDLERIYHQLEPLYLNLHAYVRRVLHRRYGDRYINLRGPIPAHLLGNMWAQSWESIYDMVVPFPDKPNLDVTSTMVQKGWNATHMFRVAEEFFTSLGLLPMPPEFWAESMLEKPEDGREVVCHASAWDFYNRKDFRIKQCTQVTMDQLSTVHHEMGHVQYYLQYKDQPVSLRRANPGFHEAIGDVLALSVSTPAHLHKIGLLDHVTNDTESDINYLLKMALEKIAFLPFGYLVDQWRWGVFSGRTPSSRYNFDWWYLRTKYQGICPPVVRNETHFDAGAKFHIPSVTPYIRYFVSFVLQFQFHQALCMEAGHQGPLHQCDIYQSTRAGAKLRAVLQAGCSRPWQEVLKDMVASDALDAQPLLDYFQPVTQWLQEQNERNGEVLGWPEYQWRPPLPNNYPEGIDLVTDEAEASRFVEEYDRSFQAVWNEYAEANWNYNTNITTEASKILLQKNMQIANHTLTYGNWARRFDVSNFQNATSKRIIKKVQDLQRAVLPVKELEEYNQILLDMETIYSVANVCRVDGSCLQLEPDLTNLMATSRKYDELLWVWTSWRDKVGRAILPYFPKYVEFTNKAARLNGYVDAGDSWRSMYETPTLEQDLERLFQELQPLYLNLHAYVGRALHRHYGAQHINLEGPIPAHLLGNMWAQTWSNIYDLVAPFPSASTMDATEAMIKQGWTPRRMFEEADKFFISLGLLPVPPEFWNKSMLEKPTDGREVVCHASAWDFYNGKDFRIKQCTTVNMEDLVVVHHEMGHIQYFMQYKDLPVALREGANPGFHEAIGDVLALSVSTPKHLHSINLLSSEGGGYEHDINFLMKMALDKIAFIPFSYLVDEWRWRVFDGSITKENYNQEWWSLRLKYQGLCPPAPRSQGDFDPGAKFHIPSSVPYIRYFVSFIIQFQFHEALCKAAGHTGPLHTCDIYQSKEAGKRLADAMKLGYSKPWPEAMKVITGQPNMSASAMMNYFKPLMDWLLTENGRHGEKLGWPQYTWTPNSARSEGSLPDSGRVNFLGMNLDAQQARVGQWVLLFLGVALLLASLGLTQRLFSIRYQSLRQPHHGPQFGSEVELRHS
Experimental: The angiotensin converting enzyme (ACE) inhibitory property of the compounds is measured in vitro and in vivo. The in vitro assay utilizes rabbit lung extract and a specific tripeptide substrate, hippuryl-L-histidyl-L-leucine being preferred, and follows the method of Cushman et al., Biochem. Pharmacol., 20, 1637-1648 (1971).
In the in vitro assay for angiotensin converting enzyme inhibition utilizing the rabbit lung extract according to the procedure of Cushman et al., Biochem. Pharmacol., 20, 1637-1648 (1971), the following results were obtained: […]

[3] = test system: vasopressor action of Angiotensin I; assay: In vivo ACE inhibitory activity in the conscious normotensive rat: angiotensin I vasopressor response (Rubin et al.); design: species or system rat (Sprague-Dawley, male; settings: oral, 1 mg/kg, 2 hours after administration
Experimental: The in vivo ACE inhibitory activity of the compounds is measured according to the procedure described in Rubin et al., J. Pharmacol. Exp. Ther., 204, 271-280 (1978), which utilizes the conscious normotensive tat as a subject. In this procedure, the jugular vein and carotid artery cannulae are placed in an etheranesthetized, normotensive, male, Sprague-Dawley rat for injection or oral dosage of compounds and direct recording of systemic arterial pressure, respectively. The blood pressure responses to I. V. injections of angiotensin I (500 ng/kg.), angiotensin II (100 ng/kg.) and bradykinin (10 μg/kg.) are recorded and compared with identical doses administered at various time intervals after oral dosing of a prospective angiotensin converting enzyme inhibitor. An angiotensin converting enzyme inhibitor would not be expected necessarily to lower arterial pressure in the normotensive rat, but would be expected to block angiotensin I pressor responses without grossly altering angiotensin II responses. Additionally,the vasodepressor response to bradykinin would be expected to be augmented since angiotensin converting enzyme is known to inactivate bradykinin normally.

[4] = test system: spontaneously hypertensive rat; assay: Anti-hypertensive effect in the spontaneously hypertensive rat (systolic pressure, indirect caudal plethysmograph); type: in vivo, male); settings: oral, 4 subjects
Experimental: The anti-hypertensive effect of the compounds of the invention is measured in the spontaneously hypertensive rat. In this procedure systolic pressure of male spontaneously hypertensive rats is measured by an indirect technique using the Decker Caudal Plethysmograph or other appropriate sensor. Groups usually consist of 4 or more rats. Drugs are usually administered orally. Pressures are usually read prior to drug administration and at 1.5, 4 and 24 hours thereafter. This schedule may be altered depending upon the behavior of the drug.
This procedure measures the hypotensive effect of the subject compounds in a hypertensive subject using a single dose and measuring the response over a 24 hour period. When administered orally according to this procedure, compounds of the invention produced a significant decrease in blood pressures in doses of 1-50 mg/kg. When used to treat hypertension in warm-blooded animals doses of less than 15 mg/kg./day would be utilized, and preferably doses of less than 5 mg/kg./day. Such effective treatment doses would generally be administered in long-term antihypertensive therapy.

[5] = test system: angiotensin converting enzyme; settings: cited from earlier work
hypertension [6] = settings: humans with certain forms of hypertension; cited from earlier work

Molecule	oral activity as an anti-hypertensive agent (hypertension [1])	IC50 [2] [nM]	potency as inhibitors of angiotensin converting enzyme [5]	also measured
C[C@H](CS)C(=O)N1CCCC1C(=O)O (stereo in doubt) [D-3-mercapto-2methylpropanoyl-L-proline]	effective when administered orally	–	–	effectiveness among the proline derivatives (hypertension [1]; in vivo): most effective
C[C@H](N)C(=O)N1c2ccccc2C[C@H]1C(=O)O [Example 54, (S)-1-[(S)-2-Amino-Oxopropyl]-2,3-Dihydro-1H-Indole-2-Carboxylic Acid]	–	3100	–	–
CCOC(=O)[C@H](CCc1ccccc1)N[C@@H](C)C(=O)N1c2ccccc2C[C@H]1C(=O)O.O=C(O)/C=C\C(=O)O [Example 55, (-)-(S)-1-[(2S)-2-[[(1S)-1-(Ethoxycarbonyl)-3-Phenylpropyl]Amino]-1-Oxopropyl]-2,3-Dihydro-1H-Indole-2-Carboxylic Acid, Maleate]	–	118	–	inhibition of the vasopressor action of Angiotensin I [3]: 46%; Reduction of Systolic BP ([4]; 2.5 mg/kg): -13 mm. Hg.; Reduction of Systolic BP ([4]; 5.0 mg/kg): -23 mm. Hg.; Reduction of Systolic BP ([4]; 10.0 mg/kg): -33 mm. Hg.
CCOC(=O)[C@@H](CCc1ccccc1)N[C@@H](C)C(=O)N1c2ccccc2C[C@H]1C(=O)O [Example 56, (-)-(S)-1-[(2S)-2-[[(1R)-1-(Ethoxycarbonyl)-3-Phenylpropyl]Amino]-1-Oxopropyl]-2,3-Dihydro-1H-Indole-2-Carboxylic Acid, Maleate]	–	900	–	–
Pyr-Lys-Trp-Ala-Pro ([pGlu]KWAP) [BPP5a]	–	–	most potent	–
Pyr-Trp-Pro-Arg-Pro-Gln-Ile-Pro-Pro (WPRPQIPP; N-terminal pyroglutamate; printed: Trp-Pro-Arg-Pro-Gln-Ile-Pro-Pro) [BPP9a]	not orally active	–	most potent	anti-hypertensive effect in clinical studies (hypertension [6]): effective anti-hypertensive agent
